Read-outs that look alike come from different tables or passages of the source.
Columns and labels:
Phytophthora infestans [1] = settings: n = 10
Puccinia sorghi [2] = experiment: In planta validation: Puccinia sorghi infection of corn seedlings; type: in vivo, Puccinia sorghi on corn; settings: controlled growth conditions, growth rooms, spraying
Protocol: • 1) Use: 120×80×80 mm pots, standard garden soil with fertilizer and corn seeds of a rust sensitive variety. • 2) Put pots in a tray and fill the pots with the soil to the top. • 3) Make a small grove for the seeds. • 4) Plant about 10 seeds of corn in each pot. • 5) Cover the seeds with additional soil. • 6) Add water into the tray—about 100 ml for each pot (fill the tray 3 times). • 7) Grow the corn for 8 days in growth room at 22° C. (until the second leaf is emerged). B. Preparation of Spore Suspension [from Corn Leaves] for Inoculation • 1) Insert 20 infected corn leaves with spores into a sterile 50-ml tube. • 2) Add 50 ml of cold 0.05% Tween® 20 solution. • 3) Insert the tube into a sealed, ice cold plastic box. • 4) Shake the box using a shaker for 15 min at 3000 RPM. • 5) Transfer the suspension (without the leaves) into a clean sterile 50-ml tube. • 6) Filter the spore suspension through 16 layers of gauze into another sterile 50-ml tube. • 7) Keep the tube with the spore suspension on ice. • 8) Wash and concentrate the spores on a 5-micron membrane filter. Wash 4 times with ice-cold sterile water and collect the spores in 0.05% Tween® 20 solution. • 9) For inoculation, dilute the spore suspension to get spore concentration of 8000 spores/ml using cold 0.05% Tween® 20 solution. […]

Phytophthora infestans [3] = type: cell-based; settings: Phytophthora infestans on tomato leaf discs; activity grade x repeats/12 x100
Puccinia sorghi [4] = type: cell-based; settings: 25 ppm
Pythium aphanidermatum = type: cell-based
Rhizoctonia solani = type: cell-based
Puccinia triticina = experiment: In planta validation in wheat infected with leaf rust, growth chamber; type: in vivo, Puccinia triticina on wheat; settings: sprayed a day before inoculation
Pseudomonas syringae = type: cell-based

## CN[C@H]1CCC(c2ccc(Cl)c(Cl)c2)c2ccccc21.Cl (stereo in doubt) [Compound 3, (1S,4R)-4-(3,4-dichlorophenyl)-N-methyl-1,2,3,4-tetrahydronaphthalen-1-aminium chloride]
Phytophthora infestans [1]; Exp. 487, 200 ppm in 0.1% base (pH = 6) + Silwet 0.005%, not treated 2.6
  Mean leaf surface area (0-3) covered by Phytophthora: 0.7
Phytophthora infestans [1]; Exp. 487, 200 ppm in DMSO 6% + Silwet 0.005%, 0=clear, 3=high coverage, not treated 2.6
  Mean leaf surface area (0-3) covered by Phytophthora: 0.1
Phytophthora infestans [1]; Exp. 492, 200 ppm in 0.1% base (pH = 6) + Silwet 0.005%, not treated 3
  Mean leaf surface area (0-3) covered by Phytophthora: 0.3
Phytophthora infestans [1]; Exp. 492, 200 ppm in DMSO 6% + Silwet 0.005%, not treated 3
  Mean leaf surface area (0-3) covered by Phytophthora: 0.4
Phytophthora infestans [1]; Exp. 500, 200 ppm in 0.1% base (pH = 6) without Silwet, not treated 3
  Mean leaf surface area (0-3) covered by Phytophthora: 0.8

## C[C@H]1[C@H](c2ccc(O)c(O)c2)c2cc(O)c(O)cc2C[C@H]1C [Compound 1, (5R,6R,7R)-5-(3,4-dihydroxyphenyl)-6,7-dimethyl-5,6,7,8-tetrahydronaphthalene-2,3-diol]
Puccinia sorghi [2]
  efficacy in preventing and controlling Puccinia sorghi in corn plants (in words): very good efficacy
Phytophthora infestans [3]
  Relative Activity value (%): 25%
Puccinia sorghi [4]
  Relative Activity value (%): 50%
Pythium aphanidermatum
  Relative Activity value (%): 100%
Rhizoctonia solani
  Relative Activity value (%): 50%
Puccinia triticina; 200 ppm
  average efficacy in preventing and controlling Puccinia triticina: 95.17%
Puccinia triticina; 400 ppm
  average efficacy in preventing and controlling Puccinia triticina: 97.06%
Pseudomonas syringae
  Relative Activity value (%): 14%

## COc1cc2c(cc1O)[C@@H](c1ccc(O)c(O)c1)[C@H](C)[C@H](C)C2 [Compound 2, 4-((1R,2R,3R)-7-hydroxy-6-methoxy-2,3-dimethyl-1,2,3,4-tetrahydronaphthalen-1-yl)benzene-1,2-diol]
Puccinia sorghi [4]
  Relative Activity value (%): 50%
Pythium aphanidermatum
  Relative Activity value (%): 20%
Rhizoctonia solani
  Relative Activity value (%): 14%
Pseudomonas syringae
  Relative Activity value (%): 14%

— patent US20230098202A1 (priority 2020, published 2023)
